This is an account of results in publication PMC6274376, “Naturally Inspired Molecules as Multifunctional Agents for Alzheimer’s Disease Treatment” (Molecules, 2016).

The nature of data set [1]: Cu(II) chelating assay (bathocuproinedisulfonic acid disodium salt, BCS). The format is physicochemical. On the procedure: Data were expressed as chelating activity percentage (Table 2).
The Cu(II) chelating activity of the compounds was determined using the bathocuproinedisulfonic acid disodium salt (BCS) assay as previously described. Briefly, 50 μL of a 0.25 mM CuSO4 solution were mixed for 2 min with 50 μL of 5–20 µM compound solution in 100 µL of HEPES buffer (15 mM). Hydroxylamine (1 mM) was added after 2 min in order to reduce non-chelated cupric ions into cuprous ones. Finally, 50 μL of BCS (5 mM) or water (blank) was added and the absorbance at 490 nm was measured by spectrophotometry using a multilabel plate reader (VICTOR™ X3, PerkinElmer, Waltham, MA, USA) immediately and at 5 min. Na2EDTA (5–20 µM) was used as a positive control. The ability of the test compounds to chelate cupric ions was calculated using the following equation: chelating activity (%) = [1 − (Abs BCS + compound/Abs BCS) × 100].

Data set [2] has as its target hBACE-1 (Homo sapiens, UniProt P56817). Briefly: BACE-1 FRET inhibition assay. The data set is classed as biochemical. The conditions noted are these: for IC50: FRET assay, average of multiple experiments each in triplicate, ± SEM; for inhibition at 5 µM: tested at 5 µM concentration. On the procedure: The new benzophenone-based hybrids 3–7 presented in this study were first evaluated for their in vitro ability to inhibit the enzymatic activity of BACE-1, by means of a biochemical assay performed using the fluorescence resonance energy transfer (FRET) methodology and in comparison to inhibitor IV [22] as reference compound (Table 1). For the most interesting compounds 3–5, endowed with the orto-hydroxycarbonyl substitution pattern, the neuroprotective potential was determined as lack of toxic effects on neuronal cell viability and as Cu(II) chelating activity (Table 2); moreover, their direct interactions with Cu(II) ion were confirmed by a UV-vis spectrophotometric study.
Inhibition studies were performed using the following procedure: 5 μL of test compound (or DMSO) were pre-incubated with 175 μL of enzyme (10.37 nM, final concentration) in 20 mM NaOAc pH 4.5 containing CHAPS (0.1% w/v) for 1 h at r.t.; M-2420 (3 μM, final concentration) was then added and left to react for 15 min. The fluorescence signal was read at λem = 405 nm (λexc = 320 nm). DMSO concentration in the final mixture was maintained below 5% (v/v) to guarantee no significant loss of enzyme activity.Fluorescence intensities with and without inhibitor were compared and the percent inhibition due to the presence of test compounds was calculated. The background signal was measured in control wells containing all the reagents, except theenzymeand subtracted. The % inhibition due to the presence of increasing test compound concentration was calculated by the following expression: 100 − (IFi/IFo × 100) where IFi and IFo are the fluorescence intensities obtained for the enzyme in the presence and in the absence of inhibitor, respectively. Inhibition curves were obtained for each compound by plotting the % inhibition versus the logarithm of inhibitor concentration in the assay sample. The linear regression parameters were determined and the IC50 extrapolated (GraphPad Prism 4.0, GraphPad Software Inc., San Diego, CA, USA).

Data set [3] relates to SH-SY5Y cells. Briefly: Neurotoxicity, MTT cell viability assay. The data set is classed as cell-based, human. The conditions noted are these: for IC50: Homo sapiens, SH-SY5Y cells, 24 h treatment, 1.25–40 µM, MTT, mean ± SD. The method, then:
Cytotoxic effects in several in vitro or in vivo models have been reported for some chalcones. Therefore, to discriminate the neurotoxic concentrations of the conjugates 3–5 we evaluated the cell viability of human neuronal SH-SY5Y cells after 24 h treatment with these conjugate at different concentrations (1.25–40 μM) using the MTT assay. […] Thus, the presence of an α,β-unsatured carbonyl fragment seems to positively influence the degree of neuronal toxicity, leading to molecules endowed with a favorable SI.
Human neuronal (SH-SY5Y) cells were routinely grown in Dulbecco’s modified Eagle’ Medium (DMEM) supplemented with 10% fetal bovine serum, 2 mmol/L-glutamine, 50 U·mL^−1penicillin and 50 μg·mL^−1streptomycin at 37 °C in a humidified incubator with 5% CO2.
To evaluate the neurotoxicity of compounds, the SH-SY5Y cells were seeded in 96-well plates at 2 × 10^4 cells/well, incubated for 24 h and subsequently treated with various concentrations of compounds (1.25–40 µM) for 24 h at 37 °C in 5% CO2;. The cell viability in terms of mitochondrial metabolic function was evaluated by the reduction in 3-(4,5-dimethyl-2-thiazolyl)-2,5-diphenyl-2H-tetrazolium bromide (MTT) to formazan as previously described. The quantity of formazan was directly proportional to the number of viable cells. Briefly, the treatment medium was replaced with MTT (5 mg/mL) in phosphate-buffered saline (PBS) for 2 h at 37 °C in 5% CO2. After washing with PBS, the formazan crystals were dissolved with isopropanol. The amount of formazan was measured (570 nm, reference filter 690 nm) using a multilabel plate reader (VICTOR™ X3, PerkinElmer, Waltham, MA, USA). The neurotoxicity is expressed as concentration of compound resulting in 50% inhibition of cell viability.
(In general: Formazan colour is commonly taken as a measure of viable cells.)

A short description of data set [4]: UV-vis spectrophotometric evaluation of Cu(II) ion complexation. The data set is classed as physicochemical. From the text:
Chalcone conjugates 4 and 5 were investigated to evaluate their ability to complex Cu(II) ions via a UV-vis spectrophotometric study.
Therefore, we decided to carry on the spectrophotometric measurements in a mixed solvent: aqueous MOPS aqueous buffer […] pH 7.4 /DMF in 1:4 ratio, respectively. Flavonoids bearing the 4-carbonyl-5-hydroxyl chelation site have characteristic UV-vis spectra, characterized by a wide and non-structured band centred around 370–380 nm, with a molar extinction coefficient of 50,000 cm^−1·M^−1 that is attributed to HOMO-LUMO transition with a π-π* character.
All reagents and solvents were used as received (from Aldrich, St. Louis, MO, USA) without further purification: copper(II) sulphate hydrate (≥98%), 3-(N-Morpholino)propanesulfonic acid (MOPS, ≥99.5%), sodium hydroxide (≥98%), N,N-dimethylformamide (spectroscopic grade, DMF). A Milli-Q system (Millipore, Billerica, MA, USA) was used for the purification of water (resistivity ≥18.2 MΩ). MOPS bufferstock solution were obtained by a dissolution in Milli-Q water of 3-(N-morpholino)propane sulphonic acid to a final concentration of 10^−3 M. The pH was corrected with a solution of sodium hydroxide 1 N to a value of pH 7.4. Absorption spectra were recorded on a Perkin-Elmer Lambda 45 spectrophotometer at room temperature. Spectrophotometric titrations were performed as follows: stock solutions of ligands (ca. 10^−3 M) were prepared in DMF, diluted down to the desired concentration, in the quartz cuvette, in MOPS buffer 10^−3 M pH 7.4/DMF (1:4) to a final volume of 2.5 mL and then titrated by adding increasing amounts of Cu(II) (3.04 × 10^−3 Min DMF).

The target in data set [5] is CatD (Homo sapiens, UniProt P07339). Briefly: CatD inhibition. The format is biochemical. The conditions noted are these: up to 0.5 μM.
[6] abbreviates: 5 µM compound, fixed 40 µM CuSO4.
Where [7] appears, read: 10 µM compound, fixed 40 µM CuSO4.
Where [8] appears, read: 20 µM compound, fixed 40 µM CuSO4, mean ± SD.

Values joined by “and” are separate entries in the source; they are usually repeats but may differ in a detail not shown here. Equal entries are not always repeated. Structures can show the parent of a compound that is named as a salt.

hBACE-1, sequence (P56817 46-501): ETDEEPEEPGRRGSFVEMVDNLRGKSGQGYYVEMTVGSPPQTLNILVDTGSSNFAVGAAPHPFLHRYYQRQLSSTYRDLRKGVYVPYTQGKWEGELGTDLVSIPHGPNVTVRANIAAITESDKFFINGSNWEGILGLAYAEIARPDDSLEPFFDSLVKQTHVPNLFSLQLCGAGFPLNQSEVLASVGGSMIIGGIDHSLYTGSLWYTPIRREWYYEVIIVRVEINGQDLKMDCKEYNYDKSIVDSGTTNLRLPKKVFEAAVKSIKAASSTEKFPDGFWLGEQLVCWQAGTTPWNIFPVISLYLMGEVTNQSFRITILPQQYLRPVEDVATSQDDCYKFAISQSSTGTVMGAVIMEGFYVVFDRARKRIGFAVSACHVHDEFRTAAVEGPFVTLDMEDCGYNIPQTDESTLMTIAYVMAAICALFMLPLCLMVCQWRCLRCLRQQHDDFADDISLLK
CatD, sequence (P07339 65-412): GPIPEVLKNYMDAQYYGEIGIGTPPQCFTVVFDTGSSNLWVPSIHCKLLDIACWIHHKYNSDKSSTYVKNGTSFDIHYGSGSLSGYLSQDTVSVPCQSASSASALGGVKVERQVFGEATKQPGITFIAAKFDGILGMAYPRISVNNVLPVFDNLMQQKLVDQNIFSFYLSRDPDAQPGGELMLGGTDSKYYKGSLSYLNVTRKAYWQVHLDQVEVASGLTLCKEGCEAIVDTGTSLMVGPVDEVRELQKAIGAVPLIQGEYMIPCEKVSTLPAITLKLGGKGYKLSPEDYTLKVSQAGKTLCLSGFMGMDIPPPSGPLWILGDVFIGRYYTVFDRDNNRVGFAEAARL

For `COc1cc(/C=C/C(=O)c2ccc(OCCOc3ccc(C(=O)c4ccc(CN(C)Cc5ccccc5)cc4)cc3)cc2O)cc(OC)c1OC` [Compound 4, E-1-{4-[2-(4-4-Benzylmethylaminomethylbenzoylphenoxy)ethoxy]-2-hydroxyphenyl}-3-(3,4,5-trimethoxy-phenyl)prop-2-en-1-one], the “Cu(II)-Chelating Activity” value is 7.16% in data set [1] (setting [6]); 10.77% in data set [1] (setting [7]); 15.07% and 15.07 ± 1.32% in data set [1] (setting [8]). Besides, the IC50 amounted to 1.06 ± 0.15 µM in data set [2] and 23.7 ± 3.54 µM in data set [3]. Also, in data set [3] (neurotoxicity IC50 versus BACE-1 IC50), the “selectivity index SI” value is “around 22”. Moreover, in data set [4] (UV-vis spectra, MOPS buffer pH 7.4/DMF 1:4), the “ability to complex Cu(II) ions” value is “able to chelate the selected ion”. For the same molecule, the “association constant (order of magnitude)” value in data set [4] (estimated from titration data, 1:1 complex stoichiometry with Cu(II), MOPS pH 7.4/DMF 1:4) is given as ~10^4.

On to `CC(=O)c1ccc(OCCOc2ccc(C(=O)c3ccc(CN(C)Cc4ccccc4)cc3)cc2)cc1O` (as salt: HCl) [Compound 3, 1-{4-[2-(4-4-Benzylmethylaminomethylbenzoylphenoxy)ethoxy]-2-hydroxyphenyl}ethan-1-one], for which the melting point lay within 264 to 268 °C.

In the case of `COc1ccc(C(=O)c2ccc(CN(C)Cc3ccccc3)cc2)cc1OC` [Compound 1], the inhibition at 5 µM in data set [2] was 20%. In data set [5], the CatD inhibition entry is “not inhib”.

In data set [2], `COc1cc(C2CC(=O)c3ccc(OCCOc4ccc(C(=O)c5ccc(CN(C)Cc6ccccc6)cc5)cc4)cc3O2)cc(OC)c1OC` (centres unmarked) [Compound 6, 7-{2-[4-(4-Benzylmethylaminomethylbenzoyl)phenoxy]ethoxy}-2-(3,4,5-trimethoxyphenyl)chroman-4-one] gave an IC50 of 1.56 ± 0.23 µM.

Molecule `COc1cc(/C=C/C(=O)c2ccc(OCCOc3ccc(C(=O)c4ccc(CN(C)Cc5ccccc5)cc4)cc3)cc2O)cc(OC)c1OC` (as salt: HCl) [Compound 4, E-1-{4-[2-(4-4-Benzylmethylaminomethylbenzoylphenoxy)ethoxy]-2-hydroxyphenyl}-3-(3,4,5-trimethoxy-phenyl)prop-2-en-1-one] displayed a melting point of 220 to 222 °C.

For `CN(Cc1ccccc1)Cc1ccc(C(=O)c2ccc(OCCOc3ccc4c(c3)OC(c3cccc5ccccc35)CC4=O)cc2)cc1` (centres unmarked) (as salt: HCl) [Compound 7], the melting point was in the range of 172 to 195 °C.

With `COc1cc(/C=C/C(=O)c2ccc(OCCO)cc2O)cc(OC)c1OC` [Compound 2, (E)-1-[2-Hydroxy-4-(2-hydroxyethoxyphenyl)]-3-(3,4,5-trimethoxyphenyl)prop-2-en-1-one], the melting point fell in the range of 186 to 188 °C. For the same molecule, the inhibition at 5.2 µM in data set [2] (at 5.2 μM) was determined as 35.9%. In data set [2], this molecule gave an inhibition at 5 µM of 20%.

The molecule `CN(Cc1ccccc1)Cc1ccc(C(=O)c2ccc(OCCOc3ccc4c(c3)OC(c3cccc5ccccc35)CC4=O)cc2)cc1` (centres unmarked) [Compound 7] returned a concentration for half-maximal inhibition (IC50) in data set [2] of 3.97 ± 0.33 µM.

With “disodium salt of ethylene diaminetetraacetic acid [Na2EDTA, reference compound]”, in data set [1] (setting [8]), the “Cu(II)-Chelating Activity” value was found to be 17.10 ± 1.44%.

Molecule `CN(Cc1ccccc1)Cc1ccc(C(=O)c2ccc(OCCOc3ccc(C(=O)/C=C/c4cccc5ccccc45)c(O)c3)cc2)cc1` (as salt: HCl) [Compound 5, E-1-{4-[2-(4-4-Benzylmethylaminomethylbenzoylphenoxy)ethoxy]-2-hydroxyphenyl}-3-(naphthalen-1-yl)-prop-2-en-1-one] showed a melting point of 197 to 199 °C.

`COc1cc(C2CC(=O)c3ccc(OCCOc4ccc(C(=O)c5ccc(CN(C)Cc6ccccc6)cc5)cc4)cc3O2)cc(OC)c1OC` (centres unmarked) (as salt: HCl) [Compound 6, 7-{2-[4-(4-Benzylmethylaminomethylbenzoyl)phenoxy]ethoxy}-2-(3,4,5-trimethoxyphenyl)chroman-4-one] yielded a melting point of 182 to 194 °C.

`CC(=O)c1ccc(OCCOc2ccc(C(=O)c3ccc(CN(C)Cc4ccccc4)cc3)cc2)cc1O` [Compound 3, 1-{4-[2-(4-4-Benzylmethylaminomethylbenzoylphenoxy)ethoxy]-2-hydroxyphenyl}ethan-1-one]: the “Cu(II)-Chelating Activity” value is 0.00% in data set [1] (setting [6]); 3.49% in data set [1] (setting [7]); 5.37% and 5.37 ± 0.16% in data set [1] (setting [8]). For the same molecule, the IC50 in data set [2] was 3.18 ± 0.21 µM; in data set [3] it was 10.9 ± 1.63 µM.

The IC50 is the concentration that inhibits the measured activity by half. A high value points to a need for much substance. Usually melting point stands for the temperature, or range, at which the solid turns liquid. The term inhibition denotes how much of the control response was suppressed. Low values mean little suppression, high ones strong suppression.
